Experimental data published in patent US9992994B2, “Agricultural and detergent compositions containing a tertiary amide as adjuvant or as surfactant” (Taminco BVBA, priority 2011, dated 2018).
Where two headings read alike, the source gives them in different places.

What was measured:
[1] = 20° C., cited from earlier work
[2] = compatibility of diquats with anionic surfactant in water; format: physicochemical; set-up: key: Cl. = Clear; Blu. = Bluish; Visc. = Viscous; Prec. = Precipitate; Turb. = Turbid; settings: 1 wt % total surfactant in water, ambient temperature; for Compatibility observation, 100% of Diquat: 100% diquat; for Compatibility observation, 10% of Diquat / Compatibility observation, 20% of Diquat / Compatibility observation, 30% of Diquat / Compatibility observation, 40% of Diquat / Compatibility observation, 50% of Diquat / Compatibility observation, 60% of Diquat / Compatibility observation, 70% of Diquat / Compatibility observation, 80% of Diquat / Compatibility observation, 90% of Diquat: mixture with Sodium Laureth Sulfate; for Compatibility observation, 10% of Diquat: 10% diquat; for Compatibility observation, 20% of Diquat: 20% diquat; for Compatibility observation, 30% of Diquat: 30% diquat; for Compatibility observation, 40% of Diquat: 40% diquat; for Compatibility observation, 50% of Diquat: 50% diquat; for Compatibility observation, 60% of Diquat: 60% diquat; for Compatibility observation, 70% of Diquat: 70% diquat; for Compatibility observation, 80% of Diquat: 80% diquat; for Compatibility observation, 90% of Diquat: 90% diquat
Procedure: To delimit the applicability of the Diquats the compatibility in different ratios with LES was tested in the temperature range between 0° C. and 90° C. […] With a hydrocarbon tail of up to 10 carbon atoms no precipitation was observed and with increasing chain length only a very narrow region of mixing ratios led to an insoluble deposit.

[3] = solubility temperatures of 1 wt % solutions; format: physicochemical
[4] = test system: common lambsquarter (Chenopodium album L.; CHEAL); assay: adjuvant for Carfentrazon-ethyl test; format: in vivo; settings: Spotlight Plus, 7 DAT
Procedure: In this test we looked at the performance with Carfentrazone-ethyl (Spotlight Plus from FMC) on common lambsquarter (Chenopodium album L.; CHEAL).
After emergence, the seedlings were thinned to two plants per pot for the efficacy experiments. The common lambsquarters were treated at the four-leaf stage. The fresh weights of the plants were measured 7 days after treatment (7 DAT).
The following herbicide was used in the treatment solutions: Carfentrazone-ethyl, Spotlight Plus (FMC) ME formulation, 60 g a.i./L.
Demineralized water was used as the carrier.

Black nightshade (SOLNI) = assay: adjuvant for glyphosate test on black nightshade; format: in vivo; settings: where named, 0.25% w/v, 14 DAT; for Fresh Weight SOLNI: IPA-glyphosate 0.6 mM (20.3 g ae/ha at 200 L/ha); for Relative weight SOLNI (%): untreated plant = 100%, IPA-glyphosate 0.6 mM
Procedure: (§1) Wheat plants were used as a model for difficult to wet grasses and black nightshade was used as a model for a plant with an easy to wet but difficult to permeate leaf surface.
(§2) After emergence, the wheat seedlings were thinned to six plants per pot for the efficacy experiments. Black nightshade seedlings were thinned to one plant per pot. Black nightshade and wheat were treated at the four- and the three-leaf stage, respectively. The fresh weights of the plants were measured 14 days after treatment (14 DAT; black nightshade) or 21 days after treatment (21 DAT; wheat).
(§3) Demineralized water was used as the carrier. […] Based on previous work, these rates were 20.3 g ae/ha (equivalent to 0.6 mM) on black nightshade and 77.8 g ae/ha (equivalent to 2.3 mM at 200 L/ha) on wheat (ae=acid equivalent).
(§4) The fresh weight of the untreated plant was taken as a reference (100%). […] An industrial standard was also included in the test series.

winter wheat (cv. Ilias) = assay: adjuvant for glyphosate test on wheat; format: in vivo; settings: where named, 0.25% w/v, 21 DAT; for Fresh Weight WHEAT: IPA-glyphosate 2.3 mM (77.8 g ae/ha at 200 L/ha); for Relative weight WHEAT (%): untreated plant = 100%, IPA-glyphosate 2.3 mM
Procedure: as §1, §2, §3, §4

[5] = Manometric Respirometry Test (biodegradability); settings: after 28 days
Procedure: Biodegradability test of N,N-bis(3-(dimethylamino) propyl)-octanamide was tested in a Manometric Respirometry Test according to Commission Regulation 440/2008/EC, Method C.4-D of May 30, 2008: Manometric Respirometry Test (EEC Publication N° L142/496, May 2008).
The percentage of biodegradation was 65% after 28 days.

[6] = solubility / miscibility in water and dodecane; format: physicochemical
From the text: R1 is preferably an aliphatic group, in particular a fatty chain, having 5-13 carbon atoms (i.e. a C5 to C13 carbon chain), preferably 5-9 carbon atoms. This embodiment is especially advantageous when the amide is a diamine of formula (I). […] This is not only the case when one or more of the R2, R3, R4 and R5 groups are ethanol and/or tertiary propanol groups, but also when these groups are alkyl groups, in particular C1 to C3 alkyl groups. The R2, R3, R4 and R5 groups are preferably methyl groups. The corresponding DMAPA amides, on the other hand, show only poor water solubility.
Furthermore, they can be used efficiently in highly concentrated (so-called ‘high load’) agrochemical compositions to prevent phase separation to occur. The amphiphilic behaviour of the bisDMAPA amides is further illustrated in example 4.

Compound	Compatibility observation, 100% of Diquat [2]	Compatibility observation, 10% of Diquat [2]	Compatibility observation, 20% of Diquat [2]	Compatibility observation, 30% of Diquat [2]	Compatibility observation, 40% of Diquat [2]	Compatibility observation, 50% of Diquat [2]	Compatibility observation, 60% of Diquat [2]	Compatibility observation, 70% of Diquat [2]	Compatibility observation, 80% of Diquat [2]	Compatibility observation, 90% of Diquat [2]	also measured
CCNc1nc(Cl)nc(NC(C)C)n1 [Atrazine]											log Kow ([1]; no pH given): 2.6
CC(C)N1C(=O)c2ccccc2NS1(=O)=O [Bentazone]											log Kow ([1]; at pH 7): −0.5
CCCCCCCC(=O)N(CCC[N+](C)(C)Cc1ccccc1)CCC[N+](C)(C)Cc1ccccc1.[Br-].[Br-] [C8BnBr]	Cl.	Cl.	Cl.	Cl.	Prec.	Prec.	Prec.	Prec.	Prec.	Prec.	
CCCCCCCC(=O)N(CCC[N+](C)(C)C)CCC[N+](C)(C)C.[Cl-].[Cl-] [C8MeCl]	Cl.	Cl.	Cl.	Cl.	Cl.	Cl.	Cl.	Cl.	Cl.	Cl.	
CCCCCCCC[N+](C)(C)CCCN(CCC[N+](C)(C)CCCCCCCC)C(=O)CCCCCCC.[Br-].[Br-] [C8OcBr]	Cl.	Cl.	Cl.	Blu.	Blu.	Turb.	Turb.	Turb.	Cl.	Cl.	
CCCCCCCCCC(=O)N(CCC[N+](C)(C)C)CCC[N+](C)(C)C.[Cl-].[Cl-] [C10MeCl]	Cl.	Cl.	Cl.	Cl.	Cl.	Turb.	Cl.	Cl.	Cl.	Cl.	
CCCCCCCCCCCC(=O)N(CCC[N+](C)(C)C)CCC[N+](C)(C)C.[Cl-].[Cl-] [C12MeCl]	Cl.	Cl.	Cl.	Cl.	Blu.	Cl.	Cl.	Cl.	Cl.	Cl.	
CCCCCCCCCCCCCC(=O)N(CCC[N+](C)(C)C)CCC[N+](C)(C)C.[Cl-].[Cl-] [C14MeCl]	Cl.	Cl.	Cl.	Cl.	Prec.	Cl.	Cl.	Cl.	Cl.	Cl.	
CCCCCCCCCCCCCCCC(=O)N(CCC[N+](C)(C)C)CCC[N+](C)(C)C.[Cl-].[Cl-] [C16MeCl]	Cl.	Cl.	Cl.	Visc.	Prec.	Cl.	Cl.	Cl.	Cl.	Cl.	
CCCCCCCCCCCCCCCCCC(=O)N(CCC[N+](C)(C)C)CCC[N+](C)(C)C.[Cl-].[Cl-] [C18MeCl]	Cl.	Cl.	Cl.	Cl.	Turb.	Visc.	Cl.	Cl.	Cl.	Cl.	
CCCCCCCCCCCCCCCC[N+](C)(C)C.[Br-] [CTAB, Cetrimonium bromide]											Solubility temperatures [° C.] 1 wt % [3]: 25 °C
CCOC(=O)C(Cl)Cc1cc(-n2nc(C)n(C(F)F)c2=O)c(F)cc1Cl (stereo not shown) [Carfentrazone-ethyl]											log Kow ([1]; no pH given): 3.4; Fresh Weight CHEAL (g) Herbicide + Adjuvant ([4]; sub-optimal rate + N,N-bis(3-(dimethylamino)propyl)octanamide 0.25% (w/v)): 0.7 g; Fresh weight CHEAL (g) Only herbicide ([4]; sub-optimal rate, no adjuvant, average of four replicates): 4.9 g
CCCCCCCCCCCC[N+](C)(C)C.[Br-] [DTAB, Dodecyl Trimethyl Ammonium Bromide]											Solubility temperatures [° C.] 1 wt % [3]: <0 °C
CC(C)N.O=C(O)CNCP(=O)(O)O [IPA-glyphosate, reference compound]											Fresh Weight SOLNI (Black nightshade (SOLNI)): 6.4 g; Relative weight SOLNI (%) (Black nightshade (SOLNI)): 55.2%; Fresh Weight WHEAT (winter wheat (cv. Ilias)): 12.6 g; Relative weight WHEAT (%) (winter wheat (cv. Ilias)): 71.7%
CCCCCCCC(=O)N(CCCN(C)C)CCCN(C)C [N,N-bis(3-(dimethylamino)propyl)octanamide]											Fresh Weight SOLNI (Black nightshade (SOLNI)): 1.6 g; Relative weight SOLNI (%) (Black nightshade (SOLNI)): 14.1%; biodegradability classification [5]: Readily Biodegradable; percentage of biodegradation [5]: 65%; Fresh Weight WHEAT (winter wheat (cv. Ilias)): 2.3 g; Relative weight WHEAT (%) (winter wheat (cv. Ilias)): 13.0%; solubility in dodecane [6]: completely soluble; solubility in water [6]: completely soluble
CCCCCCCCCCCC(=O)[O-].[Na+] [NaC12, Sodium Laurate]											Solubility temperatures [° C.] 1 wt % [3]: 25 °C
COc1cc(OC)nc(NC(=O)NS(=O)(=O)c2ncccc2C(=O)N(C)C)n1 [Nicosulfuron]											log Kow ([1]; at pH 7): 0
CCCCCCCCCCCC(=O)N(CCC[N+](C)(C)C)CCC[N+](C)(C)C.[Cl-].[Cl-] [R2, R3, R4, R5, R6 = —CH3 R1 = —C11H23]											Fresh Weight SOLNI (Black nightshade (SOLNI)): 5.8 g; Relative weight SOLNI (%) (Black nightshade (SOLNI)): 50.0%; Fresh Weight WHEAT (winter wheat (cv. Ilias)): 14.8 g; Relative weight WHEAT (%) (winter wheat (cv. Ilias)): 83.8%
CCCCCCCCCCCCCCCCCC(=O)N(CCC[N+](C)(C)C)CCC[N+](C)(C)C.[Cl-].[Cl-] [R2, R3, R4, R5, R6 = —CH3 R1 = —C17H35]											Fresh Weight SOLNI (Black nightshade (SOLNI)): 2.8 g; Relative weight SOLNI (%) (Black nightshade (SOLNI)): 24.0%; Fresh Weight WHEAT (winter wheat (cv. Ilias)): 14.7 g; Relative weight WHEAT (%) (winter wheat (cv. Ilias)): 83.5%
